From ChEMBL document CHEMBL5154802, “Leveraging Structure-Based Drug Design to Identify Next-Generation MAT2A Inhibitors, Including Brain-Penetrant and Peripherally Efficacious Leads” (J Med Chem, 2022)
The source made the active and inactive calls. The calls are words filed in the database; no cut-off is given here.

Columns and labels:
[1] = target: T1, S-adenosylmethionine synthase isoform type-2 (Homo sapiens, UniProt P31153); assay: Inhibition of recombinant human MAT2A expressed in baculovirus infected Sf9 cells assessed as S-adenosyl methionine production using L-methionine as substrate preincubated for 60 mins followed by substrate addition and measured after 60 mins in presence of ATP
Target sequence in this assay (P31153 whole entry, canonical isoform): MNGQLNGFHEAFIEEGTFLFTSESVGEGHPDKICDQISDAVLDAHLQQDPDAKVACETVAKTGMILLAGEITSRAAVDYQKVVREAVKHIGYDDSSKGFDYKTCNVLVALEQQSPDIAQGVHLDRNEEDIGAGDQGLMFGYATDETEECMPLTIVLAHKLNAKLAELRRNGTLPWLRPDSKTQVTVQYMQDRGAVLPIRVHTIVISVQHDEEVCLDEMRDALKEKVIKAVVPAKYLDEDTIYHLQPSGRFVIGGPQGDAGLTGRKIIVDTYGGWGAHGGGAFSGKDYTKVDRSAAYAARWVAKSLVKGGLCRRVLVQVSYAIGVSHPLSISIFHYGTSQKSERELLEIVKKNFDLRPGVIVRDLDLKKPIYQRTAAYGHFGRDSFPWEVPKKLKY

[2] = target: T1, S-adenosylmethionine synthase isoform type-2; assay: Inhibition of recombinant human MAT2A expressed in baculovirus infected Sf9 cells assessed as S-adenosyl methionine production using L-methionine as substrate preincubated for 60 mins followed by substrate addition and measured after 60 mins in presence of ATP relative to control
Target sequence in this assay (P31153 whole entry, looked up, canonical isoform): as the sequence (P31153 whole entry, canonical isoform) above

PXR (NR1I2) = target: T2, PXR (NR1I2) (Homo sapiens, UniProt O75469); assay: Transactivation of human PXR transfected in HepG2 cells assessed as CYP450 induction by measuring fold activation at 10 uM by luciferase reporter gene assay; type: ADME, cell-based; conditions: HepG2 cells transfected with human PXR, read-out: FC
T2 sequence (O75469 whole entry): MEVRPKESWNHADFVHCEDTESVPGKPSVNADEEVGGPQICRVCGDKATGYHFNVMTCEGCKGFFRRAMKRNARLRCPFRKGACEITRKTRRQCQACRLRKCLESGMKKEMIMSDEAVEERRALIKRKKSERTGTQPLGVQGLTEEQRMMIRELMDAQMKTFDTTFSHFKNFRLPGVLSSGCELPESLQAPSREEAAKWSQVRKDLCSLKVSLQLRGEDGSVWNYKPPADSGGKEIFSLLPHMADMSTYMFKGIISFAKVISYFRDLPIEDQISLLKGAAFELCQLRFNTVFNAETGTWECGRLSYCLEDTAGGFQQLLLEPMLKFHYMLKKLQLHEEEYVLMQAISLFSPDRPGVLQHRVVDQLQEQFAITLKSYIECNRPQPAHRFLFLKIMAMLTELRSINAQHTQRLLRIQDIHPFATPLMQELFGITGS

[3] = target: T1, S-adenosylmethionine synthase isoform type-2; assay: Inhibition of […] in MTAP-null human HCT-116 cells after 72 hrs by LC-MS/MS analysis relative to control; type: cell-based; conditions: HCT116-MTAP null
Target sequence in this assay (P31153 whole entry, looked up, canonical isoform): as the sequence (P31153 whole entry, canonical isoform) above

[4] = target: T1, S-adenosylmethionine synthase isoform type-2; assay: Inhibition of […] in MTAP-null human HCT-116 cells after 72 hrs by LC-MS/MS analysis; type: cell-based, HCT116-MTAP null
Target sequence in this assay (P31153 whole entry, canonical isoform): as the sequence (P31153 whole entry, canonical isoform) above

[5] = Ratio of drug concentration in brain to plasma of mouse at 10 mg/kg, po measured at 1 to 4 hrs post dose; type: ADME, organism-based; conditions: brain and plasma, time 1-4 hrs
[6] = In vivo inhibition of MAT2A in human HCT116-MTAP null cells xenografted po dosed nu/nu mouse model assessed as plasma exposure required for reduction in tumor SAM level; type: functional
HCT116-MTAP null = assay: Antitumor activity against human HCT116-MTAP null cells xenografted in nu/nu mouse assessed as inhibition of tumor […] at 10 to 30 mg/kg, po QD for 21 days; type: functional, organism-based; conditions: dose 10-30 mg/kg, time 21.0 day
[7] = Inhibition of MAT2A in human HCT116-MTAP null cells xenografted po dosed nu/nu mouse model assessed as plasma exposure required for reduction in periphery SAM level; type: functional
KP-4 = assay: Antitumor activity against human KP-4 cells xenografted in CB17-SCID mouse assessed as tumor growth inhibition […] at 30 to 60 mg/kg, po QD for 13 days; type: functional, organism-based; conditions: dose 30-60 mg/kg, time 13.0 day

IC50 [1]	Imax [2]	Imax [3]	IC50 [4]	SMILES	other results
320 nM	38%	–	–	COc1ccc(N2Cc3cnc(NCC4CC4)nc3C3(CCN(Cc4ccccc4F)C3)C2=O)cc1 (configuration not stated)	–
–	–	88%	13 nM	Cn1cc2cc(-n3cc4ccc(OCC(F)F)nc4c(-c4ccc(Cl)cc4)c3=O)ccc2n1	fold induction at 10 µM (PXR (NR1I2)): 3.8
54 nM	88%	–	–	COc1ccc(-n2cc3cnc(NCC4CC4)nc3c(-c3ccc(Br)cc3)c2=O)cc1	–
–	–	84%	46 nM	O=c1c(-c2ccc(Br)cc2)c2nc(NCC(F)(F)F)ncc2cn1-c1ccc2ncccc2c1	fold induction at 10 µM (PXR (NR1I2)): 5.3; Kp [5]: 0.1
7200 nM	46%	–	–	Cc1nc(NCC2CC2)nc2c1COCC21CCN(Cc2ccccc2F)C1 (configuration not stated)	–
510 nM	38%	–	–	COc1ccc(N2Cc3cnc(NCC4CC4)nc3C3(CCN(Cc4ccsc4)C3)C2=O)cc1 (configuration not stated)	–
250 nM	50%	–	–	COc1ccc(N2Cc3c(C)nc(NCC4CC4)nc3C3(CCN(Cc4ccccc4F)C3)C2=O)cc1 (configuration not stated)	–
530 nM	50%	–	–	COc1ccc(N2Cc3cnc(NCC4CC4)nc3C3(CCN(Cc4ccon4)C3)C2=O)cc1 (configuration not stated)	–
48 nM	73%	–	–	CCCNc1ncc2cn(-c3ccc(OC)cc3)c(=O)c(-c3ccc(Br)cc3)c2n1	–
325 nM	69%	–	–	COc1ccc(-n2cc3cnc(NCCC(F)(F)F)nc3c(-c3ccc(Br)cc3)c2=O)cc1	–
–	–	80%	14 nM	Cn1cc2cc(-n3cc4cnc(NCC(F)(F)F)nc4c(-c4ccc(Cl)cc4)c3=O)ccc2n1	fIC50 [6]: 1.8 nM; Activity (HCT116-MTAP null): Active; fIC50 [7]: 2 nM
22 nM	94%	84%	34 nM	COc1ccc(-n2cc3cnc(NCC(F)(F)F)nc3c(-c3ccc(Br)cc3)c2=O)cc1	fIC50 [6]: 10.2 nM; Activity (KP-4): Active
–	–	83%	79 nM	O=c1c(-c2ccc(Cl)cc2)c2nc(NCC(F)(F)F)ncc2cn1-c1ccc2ncccc2c1	–
690 nM	88%	–	–	COc1ccc(N2Cc3cnc(NCC4CC4)nc3C3(CCN(Cc4cc[nH]n4)C3)C2=O)cc1 (configuration not stated)	–
3310 nM	71%	–	–	COc1ccc(-n2cc3cnc(N(C)CC(F)(F)F)nc3c(-c3ccc(Br)cc3)c2=O)cc1	–
–	–	81%	10 nM	CCNc1ccc2cn(-c3ccc4nn(C)cc4c3)c(=O)c(-c3ccc(Cl)cc3)c2n1	–
2010 nM	34%	–	–	COc1ccc(N2Cc3cnc(NCC4CC4)nc3C3(CCN(Cc4cc[nH]c4)C3)C2=O)cc1 (configuration not stated)	–
–	–	76%	101 nM	Cn1cc2cc(-n3cc4ccc(CCC(F)(F)F)nc4c(-c4ccc(Cl)cc4)c3=O)ccc2n1	–
–	–	80%	21 nM	Cc1nc2ccc(-n3cc4cnc(NCC(F)(F)F)nc4c(-c4ccc(Cl)cc4)c3=O)cc2n1C	–
–	–	82%	11 nM	Cn1cc2cc(-n3cc4ccc(NCC(F)(F)F)nc4c(-c4ccc(Cl)cc4)c3=O)ccc2n1	–
–	–	83%	113 nM	COc1ccc(-n2cc3cnc(NCC(F)(F)F)nc3c(-c3ccc(Cl)cc3)c2=O)cc1	–
410 nM	38%	–	–	COc1ccc(N2Cc3cnc(NCC4CC4)nc3C3(CCN(Cc4cnc(N)s4)C3)C2=O)cc1 (configuration not stated)	–
–	–	89%	23 nM	CCOc1ccc2cn(-c3ccc4nn(C)cc4c3)c(=O)c(-c3ccc(Cl)cc3)c2n1	fIC50 [6]: 9.8 nM
7830 nM	60%	–	–	COc1ccc(N2Cc3cnc(NCC4CC4)nc3C3(CCN(Cc4cn[nH]c4)C3)C2=O)cc1 (configuration not stated)	–
610 nM	62%	–	–	COc1ccc(N2Cc3cnc(NCC4CC4)nc3C3(CCN(Cc4cscn4)C3)C2=O)cc1 (configuration not stated)	–
34 nM	91%	–	–	CCNc1ncc2cn(-c3ccc(OC)cc3)c(=O)c(-c3ccc(Br)cc3)c2n1	–
–	–	82%	32 nM	Cn1cc2cc(-n3cc4ccc(OCC(F)(F)F)nc4c(-c4ccc(Cl)cc4)c3=O)ccc2n1	–
–	–	80%	31 nM	Cn1cnc2ccc(-n3cc4cnc(NCC(F)(F)F)nc4c(-c4ccc(Cl)cc4)c3=O)cc21	–
